The values below come from article PMC6063448, “Antimicrobial activity of linear lipopeptides derived from BP100 towards plant pathogens” (PLoS ONE, 2018).

Assay in all cases: MIC, growth inhibition in microtiter plates (TSB)
Assay type in all cases: cell-based

Assay [1] deals with Xanthomonas arboricola pv. pruni CFBP5563. Conditions: Xap, 25°C, 48 h, OD 600 nm, lowest concentration with no growth, given as interval of tested concentrations, three replicates, experiment repeated twice. The method, boiled down:
(§1)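 Bacterial suspensions at 10^8 CFU mL^-1, grown 24 h (P. syringae strains, X. arboricola) or 48 h (X. fragariae) at 25 °C, mixed with peptide dilutions in TSB. OD600 read hourly for 48 h at 25 °C, triplicates. MIC was the lowest concentration with no growth at the end.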

Assay [2] relates to Xanthomonas fragariae Xf349-9A. Conditions: Xf, 25°C, 48 h, OD 600 nm, lowest concentration with no growth, given as interval of tested concentrations, three replicates, experiment repeated twice. The essentials: as §1
Assay [3] relates to Erwinia amylovora PMV6076. The note with it: Ea, 25°C, 48 h, OD 600 nm, lowest concentration with no growth, given as interval of tested concentrations, three replicates, experiment repeated twice. The method, boiled down: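 Bacteria were scraped from agar after 24 h at 25°C, or 48 h for X. fragariae, and suspended in sterile water at 10^8 CFU mL^-1. Each suspension was combined with peptide dilution in Trypticase Soy Broth and incubated 48 h at 25°C. Growth was followed by absorbance at 600 nm.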

Assay [4] concerns Pseudomonas syringae pv. syringae EPS94. Conditions: Pss, 25°C, 48 h, OD 600 nm, lowest concentration with no growth, given as interval of tested concentrations, three replicates, experiment repeated twice. The method, boiled down: as §1
Assay [5] has as its system Xanthomonas axonopodis pv. vesicatoria 2133–2. The note with it: Xav, 25°C, 48 h, OD 600 nm, lowest concentration with no growth, given as interval of tested concentrations, three replicates, experiment repeated twice. The essentials: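 Peptides, dissolved in water at 1 mM and filter-sterilized, were diluted and mixed with bacterial suspension (10^8 CFU mL^-1 before mixing) in TSB. Plates were incubated at 25°C with shaking, and OD600 was read hourly for 48 h. MIC was the lowest concentration with no growth at the end.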

Assay [6] concerns Pseudomonas syringae pv. actinidiae Psa3700.1.1. The note with it: Psa, 25°C, 48 h, OD 600 nm, lowest concentration with no growth, given as interval of tested concentrations, three replicates, experiment repeated twice. The method, boiled down:
as §1

For `CC[C@H](C)[C@H](NC(=O)[C@H](CCCCN)NC(=O)[C@H](CCCCN)NC(=O)[C@H](Cc1ccccc1)NC(=O)[C@H](CC(C)C)NC(=O)[C@H](CCCCN)NC(=O)[C@@H](N)CCCCN)C(=O)N[C@@H](CC(C)C)C(=O)N[C@@H](CCCCN)C(=O)N[C@@H](Cc1ccc(O)cc1)C(=O)N[C@@H](CC(C)C)C(N)=O` [BP100, H-Lys-Lys-Leu-Phe-Lys-Lys-Ile-Leu-Lys-Tyr-Leu-NH2], the MIC in assay [1] fell in the range of 1.6 to 3.1 µM; in assay [2], 3.1 to 6.2 µM; in assay [3] it was 3.1 to 6.2 µM; in assay [4], 3.1 to 6.2 µM; in assay [5], 3.1 to 6.2 µM; in assay [6] it was 1.6 to 3.1 µM.

Consider `CCCCCC(=O)NCCCC[C@H](NC(=O)[C@H](CC(C)C)NC(=O)[C@H](CCCCN)NC(=O)[C@H](CCCCN)NC(C)=O)C(=O)N[C@@H](CCCCN)C(=O)N[C@@H](CCCCN)C(=O)N[C@H](C(=O)N[C@@H](CC(C)C)C(=O)N[C@@H](CCCCN)C(=O)N[C@@H](Cc1ccc(O)cc1)C(=O)N[C@@H](CC(C)C)C(N)=O)[C@@H](C)CC` [BP371, Ac-KKLK(COC5H11)KKILKYL-NH2], for which the MIC in assay [1], in assay [2], in assay [3], in assay [4], in assay [5] and in assay [6] was 3.1 to 6.2 µM in each case.

For `CCCCCC(=O)NCCCC[C@H](NC(=O)[C@H](CCCCN)NC(=O)[C@H](CCCCN)NC(=O)[C@H](Cc1ccccc1)NC(=O)[C@H](CC(C)C)NC(=O)[C@H](CCCCN)NC(=O)[C@H](CCCCN)NC(C)=O)C(=O)N[C@@H](CC(C)C)C(=O)N[C@@H](CCCCN)C(=O)N[C@@H](Cc1ccc(O)cc1)C(=O)N[C@@H](CC(C)C)C(N)=O` [BP374, Ac-KKLFKKK(COC5H11)LKYL-NH2], the MIC was 6.2 to 12.5 µM in assay [1]; 3.1 to 6.2 µM in assay [2]; 3.1 to 6.2 µM in assay [3]; 6.2 to 12.5 µM in assay [4]; 6.2 to 12.5 µM in assay [5]; 3.1 to 6.2 µM in assay [6].

`CCCCCC(=O)NCCCC[C@H](NC(=O)[C@H](Cc1ccc(O)cc1)NC(=O)[C@H](CCCCN)NC(=O)[C@H](CC(C)C)NC(=O)[C@@H](NC(=O)[C@H](CCCCN)NC(=O)[C@H](CCCCN)NC(=O)[C@H](Cc1ccccc1)NC(=O)[C@H](CC(C)C)NC(=O)[C@H](CCCCN)NC(=O)[C@H](CCCCN)NC(C)=O)[C@@H](C)CC)C(N)=O` [BP378, Ac-KKLFKKILKYK(COC5H11)-NH2]: the MIC in assay [1] fell in the range of 3.1 to 6.2 µM; in assay [2], 3.1 to 6.2 µM; in assay [3] it was 3.1 to 6.2 µM; in assay [4], 6.2 to 12.5 µM; in assay [5], 3.1 to 6.2 µM; in assay [6], 3.1 to 6.2 µM.

Consider `CCCC(=O)NCCCC[C@H](NC(=O)[C@H](CCCCN)NC(C)=O)C(=O)N[C@@H](CC(C)C)C(=O)N[C@@H](Cc1ccccc1)C(=O)N[C@@H](CCCCN)C(=O)N[C@@H](CCCCN)C(=O)N[C@H](C(=O)N[C@@H](CC(C)C)C(=O)N[C@@H](CCCCN)C(=O)N[C@@H](Cc1ccc(O)cc1)C(=O)N[C@@H](CC(C)C)C(N)=O)[C@@H](C)CC` [BP381, Ac-KK(COC3H7)LFKKILKYL-NH2], for which the MIC was 3.1 to 6.2 µM in assay [1]; 1.6 to 3.1 µM in assay [2]; 3.1 to 6.2 µM in assay [3]; 3.1 to 6.2 µM in assay [4]; 1.6 to 3.1 µM in assay [5]; 3.1 to 6.2 µM in assay [6].

For the molecule `CCCC(=O)NCCCC[C@H](NC(=O)[C@H](CCCCN)NC(=O)[C@H](Cc1ccccc1)NC(=O)[C@H](CC(C)C)NC(=O)[C@H](CCCCN)NC(=O)[C@H](CCCCN)NC(C)=O)C(=O)N[C@H](C(=O)N[C@@H](CC(C)C)C(=O)N[C@@H](CCCCN)C(=O)N[C@@H](Cc1ccc(O)cc1)C(=O)N[C@@H](CC(C)C)C(N)=O)[C@@H](C)CC` [BP385, Ac-KKLFKK(COC3H7)ILKYL-NH2], the MIC lay in the range of 0.8 to 1.6 µM in assay [1]; 1.6 to 3.1 µM in assay [2]; 6.2 to 12.5 µM in assay [3]; 6.2 to 12.5 µM in assay [4]; 0.8 to 1.6 µM in assay [5]; 6.2 to 12.5 µM in assay [6].

`CCCC(=O)NCCCC[C@H](NC(=O)[C@@H](NC(=O)[C@H](CCCCN)NC(=O)[C@H](CCCCN)NC(=O)[C@H](Cc1ccccc1)NC(=O)[C@H](CC(C)C)NC(=O)[C@H](CCCCN)NC(=O)[C@H](CCCCN)NC(C)=O)[C@@H](C)CC)C(=O)N[C@@H](CCCCN)C(=O)N[C@@H](Cc1ccc(O)cc1)C(=O)N[C@@H](CC(C)C)C(N)=O` [BP387, Ac-KKLFKKIK(COC3H7)KYL-NH2]: the MIC in assay [1] was 3.1 to 6.2 µM; in assay [2] it was 1.6 to 3.1 µM; in assay [3], 3.1 to 6.2 µM; in assay [4], 3.1 to 6.2 µM; in assay [5] it was 1.6 to 3.1 µM; in assay [6], 3.1 to 6.2 µM.

For `CCCC(=O)NCCCC[C@H](NC(=O)[C@H](CCCCN)NC(=O)[C@H](CC(C)C)NC(=O)[C@@H](NC(=O)[C@H](CCCCN)NC(=O)[C@H](CCCCN)NC(=O)[C@H](Cc1ccccc1)NC(=O)[C@H](CC(C)C)NC(=O)[C@H](CCCCN)NC(=O)[C@H](CCCCN)NC(C)=O)[C@@H](C)CC)C(=O)N[C@@H](CC(C)C)C(N)=O` [BP389, Ac-KKLFKKILKK(COC3H7)L-NH2], the MIC in assay [1] was 0.8 to 1.6 µM; in assay [2], 1.6 to 3.1 µM; in assay [3], 3.1 to 6.2 µM; in assay [4] it was 6.2 to 12.5 µM; in assay [5], 0.8 to 1.6 µM; in assay [6], 3.1 to 6.2 µM.

As for `CCCC(=O)NCCCC[C@H](NC(=O)[C@H](Cc1ccc(O)cc1)NC(=O)[C@H](CCCCN)NC(=O)[C@H](CC(C)C)NC(=O)[C@@H](NC(=O)[C@H](CCCCN)NC(=O)[C@H](CCCCN)NC(=O)[C@H](Cc1ccccc1)NC(=O)[C@H](CC(C)C)NC(=O)[C@H](CCCCN)NC(=O)[C@H](CCCCN)NC(C)=O)[C@@H](C)CC)C(N)=O` [BP390, Ac-KKLFKKILKYK(COC3H7)-NH2], the minimum inhibitory concentration (MIC) in assay [1] fell in the range of 6.2 to 12.5 µM; in assay [2] it was 3.1 to 6.2 µM; in assay [3] it was 3.1 to 6.2 µM; in assay [4], 6.2 to 12.5 µM; in assay [5] it was 3.1 to 6.2 µM; in assay [6], 6.2 to 12.5 µM.

With `CCCCCCCCCCCC(=O)NCCCC[C@H](NC(=O)[C@H](CC(C)C)NC(=O)[C@@H](NC(=O)[C@H](CCCCN)NC(=O)[C@H](CCCCN)NC(=O)[C@H](Cc1ccccc1)NC(=O)[C@H](CC(C)C)NC(=O)[C@H](CCCCN)NC(=O)[C@H](CCCCN)NC(C)=O)[C@@H](C)CC)C(=O)N[C@@H](Cc1ccc(O)cc1)C(=O)N[C@@H](CC(C)C)C(N)=O` [BP400, Ac-KKLFKKILK(COC11H23)YL-NH2], the MIC in assay [1] is 1.6 to 3.1 µM; in assay [2], 3.1 to 6.2 µM; in assay [3], greater than 25 µM; in assay [4] it was greater than 25 µM; in assay [5], 1.6 to 3.1 µM; in assay [6], greater than 25 µM.
